Test results taken from patent US20070036737A1, “PRODUCTS FOR TOPICAL A[…] LYSOPHO[…] FATTY ACIDS” (priority 2005, published 2007).

System: neuromuscular junction
Test: inhibition of the ex-vivo neuromuscular junction preparation (FIG. 1)
Design: species or system mouse
Conditions: single molecule alone
Excerpt: The Applicants arrived at the results of the present invention in the course of their studies on the mechanism of action of snake presynaptic PLA2 neurotoxins. These presynaptic neurotoxins are major components of the venom of many poisonous snakes. Starting from: a) the established fact that these neurotoxins are endowed with a phospholipase A2 (PLA2) activity and that such activity leads to the production of LysoPLs and FAs following the hydrolysis of the fatty acid ester bond in position 2 of phospholipids (4); b) the fact that lysophospholipids and fatty acids in the appropriate membrane localization favor membrane fusion and inhibit membrane fission (5), and that c) such biological activities would lead to the depletion of synaptic vesicles from nerve terminals, as the one observed by electron microscopy upon exposure to the snake presynaptic PLA2 neurotoxins (6,7), the Applicants decided to test the effect of a mixture of lysophospholipids and fatty acids on the neuromuscular junction both in an ex-vivo preparation and in an in-vivo system.
Similar data were obtained with other lysoPLs varying with respect to R and/or with respect to R′. […] In other words, the two molecules act in a synergistic mode and this is at the very basis of the present patent. […]

| SMILES | inhibition of the neuromuscular junction |
| --- | --- |
| CCCCCCCC/C=C\CCCCCCCC(=O)O [OA, oleic acid] | unable to elicit a substantial inhibition |
| CCCCCCCCCCCCCC(=O)OC[C@@H](O)COP(=O)([O-])OCC[N+](C)(C)C [lysoPC, 1-Myristoyl-sn-glycero-3-phosphocholine] | unable to elicit a substantial inhibition |
